Common to all, as to type: cell-based
Assay [1] deals with Mouse adrenocortical Y1 cell line. Briefly: MTT assay of Y1 cell viability. Particulars: Y1 cells, 40 μM astaxanthin, 48 hours. On the procedure: (§1) Mouse adrenocortical Y1 cell line (ATCC, ATCC® CCL-79™) was grown in Dulbecco's modified Eagle medium (DMEM)-F12 supplemented with 10% fetal bovine serum at 37° C. in a humidified atmosphere at 5% CO2.
(§2) Astaxanthin (Model NO: ATP-9601A; Yuan Yu Bio-Tech (Taiwan), Co., Ltd) was dissolved in dimethyl sulfoxide (DMSO) at concentration of 20 mM as stock solution.
(§3) The Y1 cells were incubated with DMSO or 40 μM of astaxanthin for 1, 2 or 3 days before analysis.
(§4) Cells were washed with PBS after the treatment, followed by addition of 1 ml MTT (3-(4,5-cimethylthiazol-2-yl)-2,5-diphenyl tetrazolium bromide) solution (2 mg/ml in PBS) in each well. After incubation for 3 hours at 37° C., 2 ml of DMSO was added and cells were incubated in the dark for 30 minutes. Absorbance was measured at the wavelength of 570 nm (OD570).

Assay [2] concerns Human U87MG cell line. Put plainly: U87MG cell number count after astaxanthin treatment. As to conditions: 100, 200 or 400 μM astaxanthin, 24 hours or 48 hours. The procedure: (§5) Human U87MG (ATCC, ATCC® HTB-14™) cell line was grown in DMEM medium supplemented with 10% fetal bovine serum at 37° C. in a humidified atmosphere at 5% CO2. M059K (ATCC, ATCC® CRL-2365™) and M059J (ATCC, ATCC® CRL-2366™) cell lines were grown in Dulbecco's modified Eagle medium (DMEM)-F12 supplemented with 10% fetal bovine serum at 37° C. in a humidified atmosphere at 5% CO2.
(§6) Astaxanthin was dissolved in dimethyl sulfoxide (DMSO) at concentration of 20 mM as stock solution.
(§7) The U87MG, M059K, and M059J cell lines were treated with DMSO or 100, 200 or 400 μM of astaxanthin for 24 hours or 48 hours and cell numbers were counted.

The test system of assay [3] is Human U87MG cell line. Briefly: MTT assay of U87MG cell viability. As to conditions: DMSO or different concentrations of astaxanthin. The procedure:
as §4, §5, §6, §7

Another assay relates to Human U2OS cell line. Briefly: U2OS cell number count after astaxanthin treatment. Particulars: 100, 200 or 400 μM astaxanthin, 72 hours. The procedure:
Human U2OS (ATCC, ATCC® HTB-96™) cell line was grown in DMEM medium supplemented with 10% fetal bovine serum at 37° C. in a humidified atmosphere at 5% CO2.
as §6
The U2OS cell line was treated with DMSO or 100, 200 or 400 μM of astaxanthin for 72 hours and cell numbers were counted.

Another assay relates to M059K cell line. Put plainly: M059K cell number count after astaxanthin treatment. Particulars: 100, 200 or 400 μM astaxanthin, 24 hours or 48 hours. On the procedure: as §5, §6, §7
The subject of assay [4] is Mouse adrenocortical Y1 cell line. Put plainly: Y1 cell number count after astaxanthin treatment (growth curve). As to conditions: 40 μM astaxanthin, 1, 2 or 3 days of treatment. On the procedure: as §1, §2, §3

For `CC1=C(/C=C/C(C)=C/C=C/C(C)=C/C=C/C=C(C)/C=C/C=C(C)/C=C/C2=C(C)C(=O)[C@@H](O)CC2(C)C)C(C)(C)C[C@H](O)C1=O` [astaxanthin, Astaxanthin], the “OD570 (MTT, cell viability) compared with DMSO treated group” value in assay [1] was “reduced”. Besides, the “U87MG cell growth (cell number)” value in the assay on Human U87MG cell line [2] is “inhibited U87MG cell growth in a dose-dependent and time-dependent manner”. Also, the “viability of U87MG cells (MTT)” value with Human U87MG cell line [3] was “reduced”. The “U2OS cell growth (cell number)” value in the assay with Human U2OS cell line was “inhibited U2OS cell growth in a dose-dependent manner”. Moreover, in the assay on M059K cell line, the “M059K cell growth (cell number)” value was “also inhibited M059K”. Moreover, the “number of Y1 cells compared with control (DMSO treated) group” value in assay [4] was “reduced”.

Values taken from US9572783B1, “Use of xanthophylls for the treatment of cancers” (priority 2015, dated 2017).
